The text below walks through data of paper PMC7363885, “Fluorescent artificial receptor-based membrane assay (FARMA) for spatiotemporally resolved monitoring of biomembrane permeability” (Communications Biology, 2020).

The conditions of data set [1]: 298 K; cited from earlier work.
The next data set deals with Caco-2. The following applies: cited from earlier work.
For data set [2] the following is noted: Aliquot analysis/flat lipid bilayer (macroscopic bilayer of brain phospholipids); cited from earlier work.
Data set [3] in a line: FARMA: permeation of analytes into FAR-loaded liposomes (fluorescence, cuvette or stopped-flow). The conditions noted are these: for membrane permeability (in words): FARMA with FAR-loaded liposomes or GUVs. The text has this: Elementary physical parameters, such as permeability coefficients, can be extracted from the full kinetic FARMA data. This kinetic profile → parameter mapping requires some assumptions to be made in regard to the permeation mechanism. We applied a reported permeation model for liposomes[31] to arrive at permeation rate constants (kp) and apparent permeability coefficients (Papp). The derivation of the mathematical relation (1), linking the fundamental permeability rate constant and permeability coefficient to experimental measurable kobs rate constants, the known total analyte and total FAR concentration, and the experimentally determined liposome radius (r), is shown in the Supplementary Information.1 Papp=kp⋅r/3=kobs/canalyte⋅cFAR⋅r/3 […]
The volume-to-surface correction factor r/3 accounts for the fact that the observed rates depend on the size, i.e., radius r, of the liposomal assembly. […] The initial-rate method can also be applied, see the Supplementary Information. Moreover, kobs/canalyte can be estimated by single-point measurements at selected canalyte concentration.
A solution of 2.5 mg/mL of POPC and 0.33 mg/mL of POPS in chloroform was purged with nitrogen and dried overnight under […] vacuum. […] The resulting FAR-loaded liposomes were separated from non-encapsulated species by size-exclusion chromatography (NAP-25 column), while maintaining the same buffer. The absence of non-encapsulated FAR was confirmed by adding a non-membrane-permeable species such as tryptophan to a fluorescence cuvette containing 25 µL of liposomes diluted in 1 mL HEPES (10 mM) buffer. Complete removal of non-encapsulated FAR is indicated by the absence of a significant fluorescence change upon Trp addition.
In a typical experiment, 20 µL of liposome solution loaded with FAR was diluted in 1 mL HEPES buffer (10 mM, pH 7.0) in a 1 mL quartz cuvette. An emission spectrum was recorded after 10 min of “equilibration time” on a Varian Eclipse spectrofluorometer thermostated at 22 °C with a water bath using λexc = 400 nm for FAR-1, λexc = 310 nm for FAR-2, and λexc = 330 nm for FAR-3. In the time-resolved experiments, the emission intensity at λobs = 450 nm for FAR-1, λobs = 370 nm for FAR-2, and λobs = 370 and 500 nm for FAR-3 (the latter is the emerging excimer band for certain FAR-3•analyte complexes) was recorded with an averaging time of 0.5 s. […] For single-point experiments, a full spectrum was recorded after a fixed time or several time intervals after analyte addition. […] Only FAR-analyte combinations were used for FARMA, for which no significant autofluorescence and competitive light absorption of the analyte occurred.
For each experiment, measurements from 6 injections were accumulated and the average of these traces was used for data analysis.
Calculation of the unimolecular permeation rate constants ( kp) and of the apparent permeability coefficients (Papp).
The passive diffusion (permeation) of small non-charged compounds follows a modified Fick’s law and can be expressed by a first order kinetics.1 Similar to first order chemical reactions, the kinetics curve can therefore be fitted monoexponentially to obtained the observed permeation rates (kobs). In our assay set-up, such an exponential fit is an approximation, since it neglects that a certain fraction of transported analyte is bound to the FAR and cannot exit the liposome. Nevertheless, the fit of the kinetic curves of the […]
approximation is justified.

Data set [4] in a line: FARMA in DOPC:DOPS compared to POPC:POPS liposomes. It is filed as in vitro ADME. The following applies: peer review file. An excerpt:
good choice since they give different degrees of packing of lipids. If the authors further utilize the liposomes for testing membrane permeability of some of the compounds appeared in the manuscript using FARMAs composed of such different types of lipids, the results would be informative for understanding relationships between permeability of compounds and lipid structures.
The FARMA method opens indeed a door for the systematic investigation of permeability in dependence on (i) different lipids, (ii) temperature, (iii) phase transitions, and (iv) additives. These studies are under way in our laboratories but we have now emphasized some key findings in regard to the transferability of the method:
- Investigation of additives: We show in the manuscript that different lipid composition are in princi-ple possible by adding cholesterol to the POPC and POPS membrane (Fig S7), causing a noticeable alteration of the permeation kinetics of tryptamine as a model analyte.
- Different lipid compositions: We have added a statement on page 10 (bottom) pointing to the possi-bility of preparing reporter-pair loaded liposomes with different lipid POPC:POPS compositions, ranging from 8:1 to 15:1 (our GUV preparations in the manuscript) to pure POPC (ref. 20 in the main […]

The next data set concerns FAR-1. As to the kind of experiment: Fluorescence titration, FAR•analyte complex formation in homogeneous solution. It is filed as binding. The conditions noted are these: FAR-1; 10 mM HEPES buffer (pH 7); 1:1 binding model; error estimate ≤ 20%. The protocol: Fluorescence titrations were carried out in aqueous HEPES buffer (10 mM, pH 7, 22 °C) unless stated otherwise. To a solution of the FAR (typically at 10–30 μM) was stepwise added a solution of the analyte (typically up to 2 mM) and the fluorescence spectra were recorded. The normalized emissions at 450 nm (FAR-1) or at 370 nm (FAR-2) were fitted with an equation for a 1 : 1 binding by a least-square fit. The resulting affinity constants are reported in Supplementary Table 1. Representative titration plots are shown in Supplementary Fig. 1. Note that the high CB8-dye binding affinities correspond to a near quantitative degree of host-dye complexation, i.e., quantitative formation of the FAR, such that the subsequent binding of the analyte can be treated independently.

Data set [5] in a line: Dye displacement membrane assay (liposome-encapsulated host•dye ensembles). The following applies: dye displacement, CB7•BE-, CB8•MV•5OH-Trp- or CB8•MV•2,6-ANS-loaded liposomes. An excerpt:
Supplementary Figure 13 | Graphical representation of membrane assays using dye displacement for signaling. Diffusion of analytes through a lipid membrane is detected by displacement of the dye from (a) a host•dye or (b) a host•dye•quencher complex, leading to reduction or enhancement in emission intensity.
Supplementary Figure 14 | Membrane permeation monitoring of analytes by dye displacement. (a) Time-resolved changes in fluorescence intensity of CB7•BE-loaded liposomes (λexc = 347 nm, λobs = 500 nm) upon addition of the membrane-permeable analyte tyramine and membrane destabilizing peptide melittin.
(b) Evolution of fluorescence intensity after addition of dimethylbenzylamine (DMBA) to CB7•PAL-loaded liposomes (λexc = 347 nm, λobs = 500 nm). (c) Fluorescence response after addition of the […]
tryptophan to liposomes loaded with CB8•MV•2,6-ANS (λexc = 380 nm, λobs = 463 nm). […]
Combing equations S1 and S2, one arrives at Papp = kp∙(r/3) = kobs/canalyte∙cFAR∙(r/3) (equation 1 in main text)
Dye displacement membrane assay
Dye displacement membrane assays rely on selective encapsulation of reporter pairs inside liposomes and the reversible interaction between the receptor and the translocated analyte. To conduct the assay, liposomes containing the chemosensing ensemble composed of a macrocyclic host and a dye are prepared and purified, such that a subsequently added analyte affects the dye fluorescence only if it can enter the vesicle and displaces the dye from the macrocycle. Until now, only the dye displacement has been used as the signaling mechanism for tandem membrane assays,3, 4 whereby the competitive displacement of the dye from such host•dye complexes upon analyte addition restores the fluorescence features of the dye in solution, Supplementary Figures 13 - 14.
Specifically, this signaling mechanism has been mostly employed with macrocyclic host s with cavity space that is capable o f forming 1:1 complex es, e.g., cucurbit[7]uril (CB7) and the dyes berberine (BER) or palmatine (PAL), see Supplementary Figure 13a, or with p-sulfonato calix[4]arene (CX4) and lucigenin.3,4 Expanding the repertoire of chemosensors for tandem membrane assay s, we exploit herein also the ability of a larger macrocyclic host such as cucurbit[8]uril (CB8) to form 1:1:1 ternary complexes,5-7 and utilize here the quencher methyl viologen (MV) in combination with the fluorescent dyes 5-hydroxy tryptophan (5HO-Trp), 2-anilinonaphthalene -6-sulfonic acid (2,6-ANS) or dapoxyl sulfonic acid, sodium salt (DapoxS), Supplementary Figure 13b. Upon addition of an analyte, the fluorescent dye, the quencher or both the fluorescent dye and quencher are displaced from the CB8 cavity, which in each case is reflected by an increase in the emission intensity of the dye (switch -on displacement assay), Supplementary Figures 14- […]
The dye displacement signal strategy has two important disadvantages compared to the preferred fluorescent artificial receptor (FAR) assays:
(i) The dye displacement strategy is limited to strongly binding analytes, i.e., K(analyte) ≥ K(dye), otherwise a large excess concentration of analyte is needed to generate significant

For data set [6] the following is noted: End-point analysis/EPC liposomes; cited from earlier work.
The conditions of data set [7]: PAMPA; cited from earlier work.
The conditions of data set [8]: Fluorescence quenching; cited from earlier work.

Entries after “also recorded” stand apart in the source; their conditions may differ. Where two headings read alike, the source gives them in different places.

Turning to `COc1ccc2cc3[n+](cc2c1OC)CCc1cc2c(cc1-3)OCO2` [BER, berberine], the “dissociation rate from CB7” value in data set [1] is 0.8 s⁻¹.
As for `c1ccc2[nH]ccc2c1` [Indole, indole], the “Papp Literature” value is 57 10^−6 cm s^−1 in the data set with Caco-2 and 250 10^−6 cm s^−1 in [2]. In addition, the “membrane permeability (in words)” value in data set [3] is listed as “instantaneous; also recorded: permeating”. For the same compound, the kobs in data set [3] (monoexponential fit, analyte 40 µM (bulk), FAR-2 ca. 500 µM in the liposome interior, 20% error) amounted to 1.8 s–1; in data set [3] (source data of Fig. 5), 1.8. For the same compound, the kp in [3] (not told, pH 7) turned out to be 3200. Besides, the “log(kobs)” value in data set [3] (source data of Fig. 5) was 0.2553.
As for `NCCc1c[nH]c2ccc(O)cc12` [Serotonin, serotonin], in [4], the “permeation rate, factor lower for DOPC:DOPS compared to POPC:POPS liposomes” value is given as 2-4. Further, the “Papp Literature” value in [2] was 1.1 10^−6 cm s^−1. In addition, the “membrane permeability (in words)” value in data set [3] was “pass the membrane within several minutes to hours”. Also, the apparent permeability coefficient (Papp) at 16 µM in [3] (not told, pH 7) came to 0.004 ×10⁻⁶ cm/s. Further, in the data set with FAR-1, the Ka was 5 10^3 M−1.
For the compound `N[C@@H](Cc1c[nH]c2ccccc12)C(=O)O` [Trp, tryptophan], the entries for the “membrane permeability (in words)” value in data set [5], in data set [3] and in [3] (listed as tryptophan) were “impermeable”, “no permeation” and “non-permeating”, respectively. The “Papp Literature” value was 1.0 10^−6 cm s^−1 in the data set with Caco-2 (no passive permeation but active transport) and 0.00041 ×10⁻⁶ cm/s in data set [6]. Moreover, the Ka in the data set with FAR-1 is 150 10^3 M−1.
Take `NCCc1c[nH]c2ccccc12` [Tryptamine, tryptamine]: the “Papp Literature” value was 5.4 10^−6 cm s^−1 in [7], 0.33 10^−6 cm s^−1 in [8] and 6.7 10^−6 cm s^−1 in [2]. Further, the figures for the “membrane permeability (in words)” value in data set [5] and in [3] were “slowly membrane permeable” and “slow permeation; also recorded: pass the membrane within several minutes to hours”, respectively. The Ka in the data set on FAR-1 is on record as 50 10^3 M−1.
